Source: US9283242B2, “Uses of dihydro bases” (priority 2013, dated 2016)

Key:
[1] = system: HK81 (AlkB+) E. coli cells; assay type: cell-based; conditions: HK81; percentage relative to unmodified control genome
Procedure: (A) A 16mer oligonucleotide containing KP1212 (SEQ ID NO: 1) (or controls) at a specific site was chemically synthesized and ligated into the genome of an M13 bacteriophage. (B) The KP1212-containing M13 genomes were replicated within E. coli cells. Progeny were analyzed to characterize the amount and the type of nucleic acid base placed opposite the lesion during replication. The relative reduction in lesion vs. non-lesion competitor progeny formation was used as an estimate of the extent to which KP1212 and m3C inhibited DNA replication. (C) The KP1212-containing M13 genomes were used as templates for in vitro polymerase extension assays, carried out at 72° C., using the high-fidelity DNA polymerase PfuTurbo. (D) Bypass efficiency (CRAB assay) of KP1212, m3C, C in HK81 (AlkB^+) and HK82 (AlkB^−) E. coli cells. m3C and undamaged C were used as controls. Genomes were made and normalized to one another before being combined with a competitor genome. Each mixture was transformed into the corresponding cell strain in triplicate, and bypass efficiency was calculated by using the undamaged C genome as 100% bypass, with error bars representing one standard deviation. (E) Mutagenesis (REAP assay) of KP1212, m3C, and C in HK82 (AlkB^−) E. coli cells. m3C, undamaged C, and an approximately equimolar mixture of genomes carrying unmodified G/A/T/C bases at the site of inquiry (denoted as GATC) were used as controls. Genomes containing the lesions of interest were transfected into E. coli in triplicate.
(§1) All E. coli strains used in this work contain the F′ episome, which enables infection by M13 phage. GW5100 strain was used for large scale preparation of M13 phage DNA, SCS 110 (JM110, end Al) was used for amplification of progeny phage post-electroporation, and NR9050 was the strain of choice for double agar plating with X-GAL for blue-clear detection of plaques. The E. coli strains used to replicate lesion-containing phage were HK81 (as AB1157, but nalA) and HK82 (as AB1157, but nalA alkB22; AlkB-deficient).

HK82SOS = assay: CRAB lesion bypass assay, HK82SOS cells; assay type: cell-based, E. coli; conditions: percentage relative to unmodified control genome
Excerpt: as §1
Lesion-containing genomes were mixed with the competitor genome (80:20 molar ratio) and electroporated in triplicate into 100 μl competent cells using a 2 mm-gap cuvette and a BTX electroporator set to 2.5 kV and 125 a Typical pulse lengths were 4.9 msec. The cells were immediately transferred to 10 ml LB and an aliquot was immediately plated using the agar overlay method to verify that a minimum of 10^5 independent initial electroporation events occurred in 10 ml of culture. Incubation for 6 h at 37° C. with aeration generated the progeny phage, which were then reamplified in SCS 110 cells (10 μl overnight culture and 100 μl of the 6 h supernatant in 10 ml LB) to dilute out the residual genomic DNA used for electroporation. Single-stranded M13 progeny phage DNA was isolated from 1.4 ml of supernatant using a Q1Aprep Spin M13 Kit with final DNA suspension in 100 μl elution buffer. CRAB forward and reverse primers were used to amplify the region of interest from 15 μl per Q1Aprep elution sample in a total volume of 25 μl containing 50 pmol of each primer, 1×Pfu Turbo buffer, 1.25 U Pfu Turbo DNA polymerase and […] of each dNTP. The PCR program used 30 cycles of 67° C. (1 min) annealing and 72° C. (1 min) extensions. […] The gels were visualized on a phosphorimager (Typhoon 7000, GE Healthcare Life Sciences); the band intensities were quantified using IMAGEJ software (National Institutes of Health). Lesion bypass was calculated as the percentage ratio of the intensity of the 18-mer band (lesion signal) to the intensity of the 21-mer band (competitor signal). […]

[2] = system: HK82 (AlkB−) E. coli cells; assay type: cell-based; conditions: for Polymerase bypass efficiency, Avg.: HK82, percentage relative to unmodified control genome, triplicate
[3] = system: HK81 (AlkB+) E. coli cells; assay: REAP mutagenesis assay, HK81 cells; assay type: cell-based; conditions: for Mutagenicity, Average % A / Mutagenicity, Average % G / Mutagenicity, Average % T: (c) HK81
Excerpt: as §1
Lesion-containing genomes were mixed with the competitor genome (80:20 molar ratio) and electroporated in triplicate into 100 μl competent cells using a 2 mm-gap cuvette and a BTX electroporator set to 2.5 kV and 125 a Typical pulse lengths were 4.9 msec. The cells were immediately transferred to 10 ml LB and an aliquot was immediately plated using the agar overlay method to verify that a minimum of 10^5 independent initial electroporation events occurred in 10 ml of culture. Incubation for 6 h at 37° C. with aeration generated the progeny phage, which were then reamplified in SCS 110 cells (10 μl overnight culture and 100 μl of the 6 h supernatant in 10 ml LB) to dilute out the residual genomic DNA used for electroporation. Single-stranded M13 progeny phage DNA was isolated from 1.4 ml of supernatant using a Q1Aprep Spin M13 Kit with final DNA suspension in 100 μl elution buffer. CRAB forward and reverse primers were used to amplify the region of interest from 15 μl per Q1Aprep elution sample in a total volume of 25 μl containing 50 pmol of each primer, 1×Pfu Turbo buffer, 1.25 U Pfu Turbo DNA polymerase and […] of each dNTP. The PCR program used 30 cycles of 67° C. (1 min) annealing and 72° C. (1 min) extensions. After purification using QIAQUICK PCR purification columns, 4 μl of the PCR product were treated with BbsI (1.5 U) and SAP (0.3 U) in a total volume of 6 μl by incubating at 37° C. for 4 h. After phosphatase inactivation, (80° C. for 5 min), the 5′ ends were then radiolabeled using [γ-^32P]-ATP (1.66 pmol, 10 μCi/μl, 6000 Ci/mmol), cold ATP (16 pmol) and 5 U of OPTIKINASE at 37° C. for 30 min. Following the kinase inactivation at 65° C. for 20 min, the labeled product was then trimmed by HaeIII (10 U in a final volume of 10 μl) at 37° C. for 2 h, and diluted 1:1 in formamide loading dye. PAGE separation on a 20% denaturing gel, run for about 3.5 h at 550 V, until the xylene cyanol dye migrated 10.5 cm, yielded two bands for each sample: an 18-mer originating from the lesion-containing genome and a 21-mer originating from the competitor genome. The gels were visualized on a phosphorimager (Typhoon 7000, GE Healthcare Life Sciences); the band intensities were quantified using IMAGEJ software (National Institutes of Health). Lesion bypass was calculated as the percentage ratio of the intensity of the 18-mer band (lesion signal) to the intensity of the 21-mer band (competitor signal).
The REAP assay methodology is identical to the CRAB assay except for the PCR primers, which amplified only the progeny DNA originating from the lesion-carrying genomes. Following electrophoresis, the 18-mer bands were excised from the gel, crushed and extracted with 200 μl water. After desalting with SEPHADEX G-50 Fine resin spin columns, the samples were lyophilized to dryness, resuspended in 5 μl containing 1 μg P1 Nuclease in 30 mM sodium acetate (pH 5.3) and 10 mM zinc chloride, and incubated at 50° C. for 1 h. One μl of each sample was then spotted onto PEI-TLC plates and separated using 200 ml of a saturated solution of (NH4)2HPO4 adjusted to pH 5.8. After 24 h of development, the TLC plates were air-dried and quantified using phosphorimagery. […]

[4] = system: HK82 (AlkB−) E. coli cells; assay type: cell-based; conditions: for Mutagenicity, Average % A / Mutagenicity, Average % C / Mutagenicity, Average % G / Mutagenicity, Average % T: (a) HK82; for base pairing / mutagenicity (in words): FIGS. 18C, 18E, m3C in repair deficient cells
[5] = in vitro and in vivo replication of a single-stranded vector containing a single KP1212

| Compound | Polymerase bypass efficiency, Avg. [1] [%] | Polymerase bypass efficiency, Avg. (HK82SOS) [%] | replication block / toxicity to replication ([2]; E. coli (FIG. 18D), for m3C cells that lack AlkB) | Polymerase bypass efficiency, Avg. [2] [%] | Mutagenicity, Average % C [3] [%] | Mutagenicity, Average % A [3] [%] | Mutagenicity, Average % G [3] [%] | Mutagenicity, Average % T [3] [%] | Mutagenicity, Average % A [4] [%] | Mutagenicity, Average % C [4] [%] | Mutagenicity, Average % G [4] [%] | Mutagenicity, Average % T [4] [%] | base pairing / mutagenicity (in words) [4] | in vivo mutation frequency ([4]; frequency of pairing with any non-G base (A)) | paired with A [4, 5] [%] | paired with G [4, 5] [%] | pairing with A in vivo ([4]; in vivo, E. coli (FIG. 18E)) [%] | pairing with G in vivo ([4]; in vivo, E. coli (FIG. 18E)) [%] | mutation frequency ([4]; observed in vitro and in vivo in this study) [%] |
| --- | --- | --- | --- | --- | --- | --- | --- | --- | --- | --- | --- | --- | --- | --- | --- | --- | --- | --- | --- |
| NC1=NC(=O)N([C@H]2C[C@H](O)[C@@H](CO)O2)CN1 [KP1212, 5-aza-5,6-dihydro-2′-deoxycytidine] | 128 | 124 | not to be a replication block | 91 | 90.2 | 0.2 | 0.1 | 9.5 | 0.0 | 89.1 | 0.4 | 10.5 | mutagenic both in vitro and in vivo | approximately 10% | 10 | 90 | 10 | 90 | 10 |
| Nc1ccn([C@H]2C[C@H](O)[C@@H](CO)O2)c(=O)n1 [dC, deoxycytidine] | 100 | 100 |  | 100 | 99.9 | 0.1 | 0.0 | 0.0 | 0.0 | 100.0 | 0.0 | 0.0 | only pairs with G |  |  |  |  |  |  |
